Patent US7645779B2, “Linked biaryl compounds” (Amgen Inc., priority 2001, dated 2010)

Tested on: High Cholesterol Fed Rats
Assay: HDL Cholesterol Assay in High Cholesterol Fed Rats
Format: in vivo, Male Sprague-Dawley rats
Settings: Rattus norvegicus, 168 h, oral once a day over the final 7 days of a 14-day high cholesterol diet, HDL increase relative to the vehicle, read-out: Serum HDL cholesterol levels (% of increase) at 30 mg/kg
Description: HDL Cholesterol Assay in High Cholesterol Fed Rats
Male Sprague-Dawley rats (BW: 100-120 g) were fed a high cholesterol diet (1.25% cholesterol, 0.5% cholic acid and 10% coconut oil) for 14 days. The animals were orally dosed with test compounds suspended to 0.5% methylcellulose solution once a day over the final 7 days. Typical doses of test compounds were 1-30 mg/kg/day.
After 7 days of treatment, serum HDL cholesterol concentration was determined from blood obtained by tail bleeds. HDL cholesterol determination was performed on a Hitachi 7170 automatic analyzer.
Serum HDL cholesterol level (% of increase) refers to the rate of HDL increase relative to the vehicle and was calculated as follows: […]

`Cc1cc(Sc2ccc(COc3ccc(C(F)(F)F)cc3)cc2Cl)ccc1OCC(=O)O` [Compound 10, 4-[[2-chloro-4-[(4-trifluoromethylphenoxy)methyl]phenyl]sulfanyl]-2-methylphenoxy-acetic acid] and `Cc1cc(Sc2ccc(OCc3ccc(C(F)(F)F)cc3)cc2)ccc1OCC(=O)O` [Compound 8] cannot be ordered by change in vivo at 30 mg/kg: at most 100% for the first, over 100% for the second.

`O=C(O)COc1ccc(Sc2ccc(CNc3ccc(C(F)(F)F)cc3)cc2Cl)c2c1CCCC2` [Compound 22, (4-{2-chloro-4-[(4-trifluoromethyl-phenylamino)-methyl]-phenylsulfanyl}-5,6,7,8-tetrahydro-naphthalen-1-yloxy)-acetic acid] and `Cc1cc(Sc2ccc(CNc3ccc(C(F)(F)F)cc3)cc2C)c(C)cc1OCC(=O)O` [Compound 21, 2,5-dimethyl-4-[[2-methyl-4-[(4-trifluoromethyl-phenylamino)methyl]phenyl]sulfanyl]phenoxy-acetic acid] cannot be ordered by change in vivo at 30 mg/kg: at most 100% for the first, over 100% for the second.

`Cc1cc(Sc2ccc(OCC(=O)O)c3ccccc23)ccc1OCc1ccc(C(F)(F)F)cc1` [Compound 9] and `Cc1cc(Sc2ccc(OCc3ccc(C(F)(F)F)cc3)c(C)c2)ccc1OCC(=O)O` [Compound 1, {2-methyl-4-[3-methyl-4-(4-trifluoromethyl-benzyloxy)-phenylsulfanyl]-phenoxy}-acetic acid] cannot be ordered by change in vivo at 30 mg/kg: at most 100% for the first, over 100% for the second.

`CCCc1cc(Sc2ccc(OCc3ccc(C(F)(F)F)cc3)c(C)c2)ccc1OCC(=O)O` [Compound 4, 4-[[3-methyl-4-(4-trifluoromethyl-benzyloxy)phenyl]sulfanyl]-2-propylphenoxy-acetic acid] and `Cc1cc(Sc2ccc(COc3ccc(C(F)(F)F)cc3)cc2)ccc1OCC(=O)O` [Compound 7, 4-[[4-[(4-trifluoromethylphenoxy)methyl]phenyl]sulfanyl]-2-methylphenoxy-acetic acid] cannot be ordered by change in vivo at 30 mg/kg: over 100% for the first, at most 100% for the second.

`Cc1cc(COc2ccc(C(F)(F)F)cc2)ccc1Sc1ccc(OCC(=O)O)cc1C` [Compound 11] and `Cc1cc(S(=O)(=O)c2ccc(OCc3ccc(C(F)(F)F)cc3)cc2C)ccc1OCC(=O)O` [Compound 5, 4-[[2-methyl-4-(4-trifluoromethyl-benzyloxy)phenyl]sulfonyl]-2-methylphenoxy-acetic acid] cannot be ordered by change in vivo at 30 mg/kg: over 100% for the first, at most 100% for the second.
